The supplement of paper PMC10307832

What was measured:
Assay in all cases: relative viability (nuclei count vs DMSO), 5 days (fraction); higher = more cells survive
[1] = compound: Cc1ccc2nc(NCCN)c3ncc(C)n3c2c1 + O=C(CCCCCCC(=O)Nc1ccccc1)NO [Vorinostat] (partner 1 µM)
Summary of the method: (§1)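 Dosing by pin tool came one day after lung cancer cell lines were seeded in 1536-well plates, using either one drug or a fixed anchor-drug dose plus five library-drug doses (not always all listed) in √10 steps. After 5 days, nuclei were counted on 4× images. Relative viability is treated-well nuclei count divided by vehicle-well nuclei count, and values are medians of duplicate plates.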

[2] = compound: Cc1ccc2nc(NCCN)c3ncc(C)n3c2c1 + CC(C)C[C@H](NC(=O)[C@H](Cc1ccccc1)NC(=O)c1cnccn1)B(O)O [Bortezomib] (partner 0.002 µM)
Summary of the method: as §1

Salubrinal + Phenformin = compound: O=C(/C=C/c1ccccc1)NC(NC(=S)Nc1cccc2cccnc12)C(Cl)(Cl)Cl [Salubrinal] + N=C(N)NC(=N)NCCc1ccccc1 [Phenformin] (partner 250 µM)
Summary of the method: as §1

Salubrinal + AZD7762 = compound: O=C(/C=C/c1ccccc1)NC(NC(=S)Nc1cccc2cccnc12)C(Cl)(Cl)Cl [Salubrinal] + NC(=O)Nc1cc(-c2cccc(F)c2)sc1C(=O)N[C@H]1CCCNC1 [AZD7762] (partner 0.2 µM)
Summary of the method: as §1

Cell Line | relative viability ([1]; first compound 0.04 µM) | relative viability ([1]; first compound 0.1265 µM) | relative viability ([1]; first compound 0.4 µM) | relative viability ([1]; first compound 1.265 µM) | relative viability ([1]; first compound 4 µM) | relative viability ([2]; first compound 0.04 µM) | relative viability ([2]; first compound 0.1265 µM) | relative viability ([2]; first compound 0.4 µM) | relative viability ([2]; first compound 1.265 µM) | relative viability ([2]; first compound 4 µM) | relative viability (Salubrinal + Phenformin; first compound 0.08 µM) | relative viability (Salubrinal + Phenformin; first compound 0.253 µM) | relative viability (Salubrinal + Phenformin; first compound 0.8 µM) | relative viability (Salubrinal + Phenformin; first compound 2.53 µM) | relative viability (Salubrinal + Phenformin; first compound 8 µM) | relative viability (Salubrinal + AZD7762; first compound 0.08 µM) | relative viability (Salubrinal + AZD7762; first compound 0.253 µM) | relative viability (Salubrinal + AZD7762; first compound 0.8 µM) | relative viability (Salubrinal + AZD7762; first compound 2.53 µM) | relative viability (Salubrinal + AZD7762; first compound 8 µM)
COR-L23 | 0.511 | 0.46 | 0.417 | 0.374 | 0.375 | 1.07 | 0.913 | 0.928 | 0.989 | 0.91 | 0.526 | 0.359 | 0.458 | 0.422 | 0.433 | – | – | – | – | –
ABC-1 | 1.32 | 1.12 | 1.39 | 0.989 | 0.836 | 0.402 | 0.223 | 0.337 | 0.282 | 0.263 | 0.225 | 0.268 | 0.281 | 0.214 | 0.24 | 0.97 | 0.998 | 0.948 | 0.898 | 0.825
SK-MES-1 | 1.19 | 1.13 | 1.03 | 1.13 | 1.03 | – | – | – | – | – | 0.703 | 0.64 | 0.668 | 0.672 | 0.605 | – | – | – | – | –
SW 900 | – | 0.517 | 0.415 | 0.421 | 0.487 | – | – | – | – | – | 0.555 | – | 0.656 | 0.607 | 0.676 | 0.612 | 0.579 | 0.687 | 0.585 | 0.421
A549 | – | – | – | – | – | – | – | – | – | – | 0.174 | 0.143 | 0.175 | 0.119 | 0.17 | – | – | – | – | –
NCI-H1792 | – | – | – | – | – | 0.963 | 0.915 | 0.912 | 0.94 | 0.968 | 0.258 | – | 0.368 | 0.239 | 0.262 | 0.514 | – | 0.982 | 0.571 | 0.354
NCI-H1703 | – | – | – | – | – | 0.34 | 0.329 | 0.329 | 0.347 | 0.234 | – | – | – | – | – | 0.124 | 0.11 | 0.139 | 0.123 | 0.122
SK-LU-1 | 0.851 | 0.725 | 0.784 | 0.856 | 0.734 | 1.39 | 1.28 | 0.989 | 1.29 | 1.02 | 0.647 | 0.4 | 0.594 | 0.555 | 0.435 | – | – | – | – | –
COR-L 105 | 0.658 | 1.13 | 0.845 | 0.911 | 0.768 | 0.89 | 0.867 | 0.723 | 0.853 | 0.737 | 0.556 | 0.479 | 0.452 | 0.511 | 0.42 | – | – | – | – | –
Calu-6 | – | – | – | – | – | 1.08 | 0.891 | 1.03 | 0.912 | 0.603 | – | – | – | – | – | – | – | – | – | –
NCI-H1944 | 0.639 | 0.581 | 0.358 | 0.491 | 0.581 | – | – | – | – | – | 0.198 | 0.191 | 0.214 | 0.185 | 0.178 | 0.563 | 0.471 | 0.472 | 0.433 | 0.596
NCI-H1648 | 0.337 | 0.458 | 0.362 | 0.4 | 0.317 | – | – | – | – | – | – | – | – | – | – | 0.733 | 0.62 | 0.705 | 0.654 | 0.575
NCI-H358 | 0.74 | 0.617 | 0.66 | 0.629 | 0.564 | – | – | – | – | – | 0.365 | 0.27 | 0.36 | 0.319 | 0.278 | 0.583 | 0.461 | 0.538 | 0.561 | 0.459
EBC-1 | – | – | – | – | – | 0.549 | 0.526 | 0.486 | 0.406 | 0.31 | – | – | – | – | – | – | – | – | – | –
NCI-H1299 | – | – | – | – | – | 1 | 0.993 | 1.01 | 1.05 | 0.972 | – | – | – | – | – | – | – | – | – | –
NCI-H2228 | 0.639 | 0.589 | 0.858 | 0.595 | 0.544 | 1.11 | 0.992 | 1.16 | 1.13 | 0.907 | 0.319 | 0.265 | 0.441 | 0.315 | 0.247 | – | – | – | – | –
NCI-H522 | 0.825 | 0.971 | 0.677 | 0.92 | 1.09 | – | – | – | – | – | 0.723 | 0.662 | 0.714 | 0.615 | 0.605 | 0.99 | 0.808 | 0.957 | 0.808 | 0.908
IA-LM | 0.92 | 0.917 | – | 1.06 | 0.981 | 0.895 | 0.94 | 0.844 | 0.696 | 0.66 | – | – | – | – | – | – | – | – | – | –
NCI-H2170 | 1.01 | 1.01 | 0.786 | 0.702 | 0.833 | – | – | – | – | – | 0.468 | 0.423 | 0.241 | 0.403 | 0.373 | 0.953 | 0.942 | 0.995 | 0.792 | 0.878
NCI-H1793 | 0.825 | 0.792 | 0.815 | 0.642 | 0.679 | – | – | – | – | – | 0.446 | 0.349 | 0.391 | 0.394 | 0.33 | 0.676 | 0.407 | 0.505 | 0.366 | 0.276
SW 1573 | 0.85 | 0.903 | 0.669 | 0.865 | 0.65 | 0.978 | 1.08 | 0.965 | 1.2 | 0.55 | 0.388 | 0.327 | 0.389 | 0.332 | 0.299 | – | – | – | – | –
NCI-H661 | 0.752 | 0.778 | 0.748 | 0.785 | 0.834 | 0.909 | 0.868 | 0.595 | – | 0.651 | 0.278 | 0.283 | 0.28 | 0.288 | 0.275 | – | – | – | – | –
NCI-H1623 | – | – | – | – | – | – | – | – | – | – | 0.522 | 0.564 | 0.61 | 0.578 | 0.551 | – | – | – | – | –
NCI-H520 | 0.719 | 0.725 | 0.808 | 0.674 | 0.574 | 0.656 | 0.544 | 0.464 | 0.568 | 0.36 | 0.56 | 0.556 | 0.831 | 0.646 | 0.54 | – | – | – | – | –
NCI-H2023 | 0.682 | 0.689 | 0.568 | 0.682 | 0.638 | 1.17 | 1.01 | 0.938 | 1.16 | 0.858 | 0.471 | 0.37 | 0.461 | 0.368 | 0.276 | – | – | – | – | –
NCI-H2009 | 0.7 | 0.736 | 0.72 | 0.709 | 0.617 | 1.06 | 1.01 | 0.987 | 0.97 | 0.875 | 0.534 | 0.492 | 0.489 | 0.454 | 0.411 | – | – | – | – | –
